In this data set the test system is PGM1-CDG patients. The data set can be described thus: Open-label prospective study of oral D-gal supplementation: safety and tolerability. It is filed as in vivo, human. The source says: The study design was an open-label prospective study. Patients with biochemically and genetically confirmed PGM1 deficiency were recruited into the study. Individuals with an existing diagnosis of aldolase B deficiency, galactosemia, hemolytic uremic syndrome, severe anemia, galactose intolerance, or intellectual disability were excluded from the study. Nine patients were enrolled in the study, five females and four males. Patient age ranged from 19 months to 21 years old at the time of enrollment (mean age 9.75 years). Informed written consent was obtained before the start of study. A primary end-point was to assess the safety and tolerability of oral D-gal supplementation and to identify physiological biomarkers that are responsive to D-gal supplementation in a heterogeneous genetic background. The effect of D-gal in PGM1-CDG patients was also monitored via glycomics. Secondary endpoints were the restoration of the plasma glycan subfractions, monitored via glycomics (Table 3), and normalization of antithrombin III activity and serum alanine transaminase (ALT) levels.
Participants in this pilot study received oral D-gal supplementation, added to the regular diet, over 18 weeks. D-gal (pure and soluble D-galactose powder: D-GALACTOSE or Galaxtra™) was provided as medical food/nutritional supplement. 50 g D-gal equals 5 tablespoons of “powdered sugar”. D-gal was added to a meal once a day. It can be added to any food or drink and has a mildly sweet aftertaste.
The D-gal intake was increased over the study period in increments as follows: weeks 0-6 (T0-T1), 0.5 g/kg per day; weeks 6-12 (T1-T2), 1.0 g/kg per day; weeks 12-18 (T2-T3), 1.5 g/kg per day (FIG. 2). The intake was increased gradually to reach the recommended maximum daily dose with minimal gastrointestinal irritation (diarrhea, stomachache, nausea) and metabolic side effects (presence of urinary galactitol).
Tolerability and side effects of oral D-gal supplementation, based on studies in blood (glucose, lactic acid, ammonia, galactose-1-phosphate) and urine (galactitol excretion), were monitored at every time point.
Dietary assessment, clinical evaluation (general physical examination and anthropometric measurements), and laboratory and biochemical studies were completed every 6 weeks (T0, T1, T2 and T3).
Liver transaminases (aspartate transaminase (AST) and alanine transaminase (ALT)), creatine kinase (CK), commonly assayed glycoproteins (thyroid stimulating hormone (TSH), thyroxine-binding globulin (TBG), and insulin-like growth factor binding protein 3 (IGF3BP)), and coagulation parameters (Factor IX, Factor XI, activated […] (aPTT), and anti-thrombin III (ATIII)), were measured in blood. Patent 1 had additional Factor XI, and XIII measurements. Serum galactose-1-phosphate and urine galactitol were measured to monitor safety and tolerability of galactose supplementation. Biochemical studies to evaluate changes in glycosylation included isoelectric focusing (IEF) of serum transferrin and glycomic analysis in blood by mass spectrometry.
Electrocardiography/echocardiography and hepatic ultrasonography were conducted at T0 and T3.

The structures appear in SMILES notation.

Turning to `O=C[C@H](O)[C@@H](O)[C@@H](O)[C@H](O)CO` [D-gal, D-galactose], the Serious adverse events result (18 weeks oral D-gal) is given as “No serious adverse events were reported”. The “Galactitol excretion in urine” value (during the trial) is reported as “no patients experiencing increased galactitol excretion in urine”. Also, for the setting “incremental increase in D-gal intake, monitored weekly”, the Adverse events result is listed as “Aside from gastroenteritis in patient 2, no clinical or metabolic adverse events”. The Galactose-1-phosphate levels entry (patients 1, 2, 3, 5, 7, 9, T2 and T3) was “no abnormalities were found”. For the same molecule, the “Structural cardiac or liver changes” value (study endpoint) was “No structural cardiac or liver changes were noted”. Further, the Clinical rhabdomyolysis result (while on galactose supplementation) is reported as “none of the patients experienced clinical rhabdomyolysis”.

For the origin of these results see patent publication US20220241311A1, “METHODS AND MATERIALS FOR TREATING GLYCOSYLATION DISORDERS” (priority 2018, published 2022).
